# Legend:
# [1] = test system: hepatic P450 monoxygenase activities; experiment: O-dealkylation of 7-methoxyresorufin in hepatic microsomes; settings: CPRlox/- +CreALB mice, nmol metabolite per nmol P450
# [2] = test system: control, CPR heterozygous null and hepatic CPR null mice; experiment: Pentobarbital sleep time (regain of righting reflex); type: in vivo, mouse; settings: 20 mg/kg i.p.
# Description: c Time taken for regain of righting reflex in adult male mice of various genotypes following treatment with sodium pentobarbital at 20 mg/kg i.p. (n=3). Values are expressed as mean±SEM.
# Pentobarbital sleep time—adult male CPR^lox/lox+Cre^ALB, CPR^lox/−+Cre^ALB, CPR^lox/− and CPR^+/++Cre^ALB mice (n=3) were given a single intraperitoneal (i.p.) dose of sodium pentobarbitone (Sagatal) at 20 mg/kg body weight. The time taken for the mice to lose, and subsequently to regain, their righting reflex was measured.
# Cytochrome P450s involved in drug metabolism are distributed throughout the tissues of the body; it has been estimated that a significant proportion of drug metabolism (up to 30%) may be extra-hepatic. In order to test the level of extra-hepatic metabolism as well as the in vivo effects of hepatic CPR nulls on drug disposition, we measured barbiturate-induced sleeping times. This method has been used since the 1960s as an indicator of drug metabolising activity.
# [3] = test system: hepatic P450 monoxygenase activities; experiment: Microsomal hydroxylation of testosterone in liver microsomes; settings: liver microsomes of hepatic CPR nulls of both sexes
structure (smiles),measurement,setting,value
COc1ccc2nc3ccc(=O)cc-3oc2c1 [7-methoxyresortifin],reduction of O-dealkylation,[1]; females,98.5%
same,reduction of O-dealkylation,[1]; males,99.5%
CCCC(C)C1(CC)C(=O)NC(=O)NC1=O (stereo not drawn) [pentobarbitone],average sleeping period,[2]; CPR heterozygous null mice (CPR+/-),approximately 50 minutes
same,induction of sleep,[2]; control mice,failed to induce sleep
same,sleeping period,[2]; mice lacking hepatic CPR (CPRlox/- +CreALB or CPRlox/lox +CreALB),> 2 h
C[C@]12CC[C@H]3[C@@H](CCC4=CC(=O)CC[C@@]43C)[C@@H]1CC[C@@H]2O [testosterone],16-hydroxylation of testosterone,[3],undetectable

# Source: patent publication US7700822B2, “Modulation of cytochrome P450 reductase activity” (Cancer Research Technology Limited, priority 2002, dated 2010)
